How the values were obtained:
Assay type in all cases: in vivo, Pityophthorus juglandis
[1] = system: WTB; assay: Example 2 Field Test 1: X in combination with X-3 and X-2; conditions: 4-unit Lindgren funnel traps
Protocol: Field Bioassays of 3-methyl-2-buten-1-ol in combination with other compounds. The flight response of WTB to 3-methyl-2-buten-1-ol in combination with other compounds was also tested. […] Louis, Mo. […] The five treatments were replicated in three spatial blocks and the treatments were re-randomized among the five trap stations in a block each time the traps were emptied (nearly every day). [table] Statistical Analyses. Analysis of treatment effects for the pouch vs. bottle experiment was done by using a sign test. (See Zar, J. H. 2010. Biostatistical Analysis. 5th ed. Pearson Prentice Hall, Englewood Cliffs, N.J.) The other four experiments were analyzed for treatment effect by using Friedman's non-parametric analysis of variance. Id. In all experiments, males and females were analyzed separately. All treatments within experiments yielding a significant treatment effect were compared by using an a posteriori Nemenyi test with experimentwise α=0.05. Id. For all experiments, differences among proportions of female WTB responding to treatments were analyzed by comparing 95% confidence intervals determined with the Clopper-Pearson method. Id.

[2] = system: WTB; assay: Trap type: clear sticky panel vs 4-unit Lindgren funnel traps baited with X; conditions: for trap catches, female WTB / trap catches, male WTB: 5 mg/d, 15 ml load
Protocol: In another set of experiments, the response of WTB to clear sticky panel traps and 4-unit Lindgren funnel traps was tested. Both were baited with 3-methyl-2-buten-1-ol (5 mg/d, 15 ml load). The clear plexiglass panel traps were coated with Stikem Special (Seabright Labs, Emeryville, Calif.). The experiment was conducted in late spring in a native riparian stand of J. hindsii at Shadow Cliffs Regional Park, Alameda Co., Calif. The pairs of traps were hung at a height of 3 m in the crowns of J. hindsii and arranged in six spatial blocks. Treatments were re-randomized among the trap stations each time that the traps were emptied (approx. weekly, after periodic WTB flights). Trap catches of males and females were normalized by the available trapping surface area for each trap type.
(§1) Statistical Analyses. Analyses of treatment effects for the tests of trap type were performed by using Friedman's non-parametric analysis of variance or a sign test, depending on the number of treatments. (See Zar, J. H. 2010. Biostatistical Analysis. 5th ed. Pearson Prentice Hall, Englewood Cliffs, N.J.) Analysis of treatment effects for the Rain•X experiment was performed by using a Wilcoxon paired sample test. Id. Multiple comparisons for experiments with more than two treatments were performed with an a posteriori Nemenyi test with experimentwise α=0.05. Id. In all cases, male and female WTB were analyzed separately. Proportions of female WTB responding to treatments were calculated and 95% confidence intervals determined by using the Clopper-Pearson method. Id.

[3] = system: WTB; assay: Trap height: 4-unit Lindgren funnel traps baited with X; conditions: for trap catches, female WTB / trap catches, male WTB: 15 to 80 mg/d
Protocol: In another experiment, the effect of trap height on the flight response of WTB was also tested with 4-unit Lindgren funnel traps at Wolfskill Experimental Orchards from late summer to early fall. The traps were each baited with the commercial version of 3-methyl-2-buten-1-ol (15 to 80 mg/d, Contech pouch) and placed at 45, 123, 199, and 271 cm (hereafter 0.5, 1.2, 2.0, and 2.7 m) from the orchard floor (measured from the floor to the middle of the trap). Traps were attached to individual 3 m metal conduit poles by using a thick piece of wire threaded through a hole drilled in the conduit pole and the eyebolt attached to the top of the funnel trap. (See Seybold, S. J., Dallara, P. L., Hishinuma, S. M., and Flint, M. L. Detecting and Identifying the Walnut Twig Beetle: Monitoring Guidelines for the Invasive Vector of Thousand Cankers Disease of Walnut, University of California Agriculture and Natural Resources, Statewide Integrated Pest Management Program, 11 pp., Apr. 30, 2012.) Three blocks of treatments were installed, trap catches were collected daily during periods of high flight activity, and the treatments were re-randomized among the four trap stations within a block each time that the traps were emptied.
as §1

[4] = system: WTB; assay: Example 2 Field Test 3: X and racemic trans-pityol; conditions: 4-unit Lindgren funnel traps
Protocol: Finally, a flight bioassay of the effect of the compound racemic trans-“pityol” [2-(1-hydroxy-1-methylethyl)-5-methyltetrahydrofuran] was conducted in late summer/early fall at Wolfskill Experimental Orchards. Pityol is a component of the aggregation pheromone of conifer-infesting Pityophthorus species. The response of WTB to racemic trans-pityol (formulated in a polyvinylchloride plastic bubble cap release device, 40 mg load, 0.2 mg/d release rate at 20° C., product #300000272, Contech Enterprises) and pityol in combination with 3-methyl-2-buten-1-ol (release rate 15-80 mg/d, LDPE plastic pouch Contech) was tested (Table 3, Field Test 3). The four treatments were replicated in three spatial blocks and the treatments were re-randomized among the four trap stations in a block each time the traps were emptied (nearly every day).
Statistical Analyses. Analysis of treatment effects for the pouch vs. bottle experiment was done by using a sign test. (See Zar, J. H. 2010. Biostatistical Analysis. 5th ed. Pearson Prentice Hall, Englewood Cliffs, N.J.) The other four experiments were analyzed for treatment effect by using Friedman's non-parametric analysis of variance. Id. In all experiments, males and females were analyzed separately. All treatments within experiments yielding a significant treatment effect were compared by using an a posteriori Nemenyi test with experimentwise α=0.05. Id. For all experiments, differences among proportions of female WTB responding to treatments were analyzed by comparing 95% confidence intervals determined with the Clopper-Pearson method. Id.

[5] = X 15-60 mg/d, X-3 and X-2 1.76 mg/d, N=42
[6] = X 15-80 mg/d, pityol 0.2 mg/d, N=93

CC(C)=CCO [X, 3-methyl-2-buten-1-ol]
proportion of females responding [1]: 0.77 | trap catches, female WTB [1, 5]: 636 | trap catches, male WTB [1, 5]: 193 | trap catches, female WTB ([2]; 4-unit Lindgren funnel traps): 160 | trap catches, male WTB ([2]; 4-unit Lindgren funnel traps): 110 | trap catches, female WTB ([2]; clear sticky panel traps): 449 | trap catches, male WTB ([2]; clear sticky panel traps): 216 | proportion of females responding ([2]; funnel traps): 0.59 | proportion of females responding ([2]; sticky traps): 0.67 | proportion of females responding ([3]; 0.5 m trap): 0.76 | trap catches, female WTB ([3]; 0.5 m trap): 392 | trap catches, male WTB ([3]; 0.5 m trap): 125 | proportion of females responding ([3]; 1.2 m trap): 0.77 | trap catches, female WTB ([3]; 1.2 m trap): 469 | trap catches, male WTB ([3]; 1.2 m trap): 139 | proportion of females responding ([3]; 2.0 m trap): 0.77 | trap catches, female WTB ([3]; 2.0 m trap): 875 | trap catches, male WTB ([3]; 2.0 m trap): 265 | proportion of females responding ([3]; 2.7 m trap): 0.77 | trap catches, female WTB ([3]; 2.7 m trap): 757 | trap catches, male WTB ([3]; 2.7 m trap): 225 | proportion of females responding [4]: 0.80 | trap catches, female WTB [4, 6]: 2100 | trap catches, male WTB [4, 6]: 539

From patent US20130014428A1, “METHODS OF MONITORING AND CONTROLLING THE WALNUT TWIG BEETLE, PITYOPHTHORUS JUGLANDIS” (The United States of America as Represented by the …, priority 2011, published 2013)
